Structures are written as SMILES.

For experiment [1], the target named is T1, Cathepsin K (Homo sapiens) (UniProt P43235).
T1 sequence (whole entry): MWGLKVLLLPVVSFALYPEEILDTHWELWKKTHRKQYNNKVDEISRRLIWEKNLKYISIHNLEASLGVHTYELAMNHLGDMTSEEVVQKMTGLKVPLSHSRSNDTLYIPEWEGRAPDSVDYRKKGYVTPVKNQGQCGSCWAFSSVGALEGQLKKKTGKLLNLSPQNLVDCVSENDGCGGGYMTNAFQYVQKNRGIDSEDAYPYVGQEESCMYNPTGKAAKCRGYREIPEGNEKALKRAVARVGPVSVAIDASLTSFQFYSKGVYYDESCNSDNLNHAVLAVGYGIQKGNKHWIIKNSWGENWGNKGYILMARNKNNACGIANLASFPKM
The experiment in a line: pKa value determined against cathepsin K from humanized rabbit enzyme. As to conditions: Oryctolagus cuniculus.

The target of experiment [2] is T2, Cathepsin K (Homo sapiens, UniProt P43235). The experiment in a line: Inhibitory activity against cathepsin K using humanized rabbit enzyme. Set-up: species or system Oryctolagus cuniculus.
Experiment [3] deals with T2, Cathepsin K. As to the kind of experiment: Inhibitory activity against cathepsin K (10 pM) using humanized rabbit enzyme. Set-up: species or system Oryctolagus cuniculus.
In the next experiment the target is Cathepsin B (Homo sapiens, UniProt P07858). As to the kind of experiment: Inhibitory activity against cathepsin B from human.
A further experiment deals with Cathepsin S (Homo sapiens, UniProt P25774). As to the kind of experiment: Inhibitory activity against cathepsin S from human.
A further experiment deals with Procathepsin L (Homo sapiens, UniProt P07711). The experiment in a line: Inhibitory activity against cathepsin L from human.
Experiment [4] addresses T2, Cathepsin K. As to the kind of experiment: Inhibitory activity against cathepsin K from humanized rabbit enzyme. Details: species or system Oryctolagus cuniculus.

Chain of Cathepsin S (P25774 whole entry): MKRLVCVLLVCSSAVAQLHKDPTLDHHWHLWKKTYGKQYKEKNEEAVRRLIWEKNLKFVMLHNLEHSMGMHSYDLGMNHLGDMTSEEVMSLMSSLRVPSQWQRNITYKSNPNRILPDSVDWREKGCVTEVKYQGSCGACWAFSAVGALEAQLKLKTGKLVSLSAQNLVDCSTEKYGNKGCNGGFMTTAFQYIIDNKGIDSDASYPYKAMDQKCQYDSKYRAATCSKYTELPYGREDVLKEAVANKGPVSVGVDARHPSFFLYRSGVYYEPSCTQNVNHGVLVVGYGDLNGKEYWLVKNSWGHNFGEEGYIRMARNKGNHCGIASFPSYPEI
Chain of Procathepsin L (P07711 whole entry): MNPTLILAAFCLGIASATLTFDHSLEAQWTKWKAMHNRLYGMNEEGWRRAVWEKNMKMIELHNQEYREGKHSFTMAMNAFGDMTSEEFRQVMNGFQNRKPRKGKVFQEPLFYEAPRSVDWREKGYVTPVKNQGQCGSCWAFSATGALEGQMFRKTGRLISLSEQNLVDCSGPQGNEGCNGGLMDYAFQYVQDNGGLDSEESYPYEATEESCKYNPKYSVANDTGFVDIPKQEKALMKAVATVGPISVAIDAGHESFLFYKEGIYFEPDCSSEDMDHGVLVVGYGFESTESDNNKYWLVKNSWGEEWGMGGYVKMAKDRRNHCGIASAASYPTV

As for `CC(C)C[C@H](NC(C)c1ccc(Br)cc1)C(=O)NCC#N` (stereo partly drawn), the pKa in experiment [1] was 6.7. For the same compound, the IC50 (as a rule, the concentration that inhibits the measured activity by half) on Cathepsin K [2] was found to be 988 nM.
The like results for `CC(C)C[C@H](NC(c1ccc(Br)cc1)C(F)(F)C(F)(F)F)C(=O)NCC#N` (stereo partly drawn) were, in that order, 1.8 and 2.4 nM.
On to `CC(C)C[C@H](N[C@@H](c1ccc(-c2ccc(N3CCNCC3)cc2)cc1)C(F)(F)F)C(=O)NCC#N`, for which the IC50 is not above 0.005 nM against Cathepsin K [3], 1110 nM on Cathepsin B, 451 nM against Cathepsin S and 47 nM against Procathepsin L.
With `CC(C)C[C@H](NC(C#N)c1ccc(Br)cc1)C(=O)NCC#N` (stereo partly drawn), in experiment [1], the pKa came out at 0.7. The compound further showed an IC50 against Cathepsin K [2] of 30 nM.
Regarding `CN1CCN(c2nc(-c3ccc(C(=O)NC4(C(=O)NCC#N)CCCCC4)cc3)cs2)CC1`, the IC50 was 1050 nM at Cathepsin B, more than 10000 nM against Cathepsin S, 0.6 nM against Cathepsin K [2] and 3900 nM at Procathepsin L.
On to `CC(C)C[C@H](NC(c1ccc(Br)cc1)c1ccc(S(C)(=O)=O)cc1)C(=O)NCC#N` (stereo partly drawn), for which, in experiment [1], the pKa came to 4.6. On Cathepsin K [2], the IC50 was 2.5 nM.
`CC(C)C[C@H](NCc1ccc(Br)cc1)C(=O)NCC#N` had a pKa in experiment [1] of 6.7. Further, the IC50 against Cathepsin K [2] amounted to 802 nM.
Take `N#CCNC(=O)C1(NC(c2ccc(-c3ccc(N4CCNCC4)cc3)cc2)C(F)(F)F)CCCCC1` (stereo not drawn): the 50% inhibitory concentration (IC50) at Cathepsin B was more than 10000 nM; against Cathepsin S, more than 10000 nM; at Cathepsin K [2], 5 nM; on Procathepsin L, more than 10000 nM.
At Cathepsin K [2], `CC(C)C[C@H](Nc1cscc1-c1ccc(N2CCNCC2)cc1)C(=O)NCC#N` yielded an IC50 of 1 nM.
On to `N#CCNC(=O)C1(NC(=O)c2ccc(-c3ccc(N4CCNCC4)cc3)cc2)CCCCC1`, for which the IC50 was 614 nM against Cathepsin B, more than 10000 nM on Cathepsin S, 0.4 nM at Cathepsin K [2] and 2270 nM against Procathepsin L.
On to `CC(C)C[C@@H](C(=O)NCC#N)c1cccc(-c2ccc(N3CCNCC3)cc2)c1`, for which, on Cathepsin K [2], inhibition was half-maximal at 11 nM (IC50).
Regarding `CC(C)C[C@H](NC(c1ccc(Br)cc1)C(F)(F)F)C(=O)NCC#N` (stereo partly drawn), the IC50 on Cathepsin K [4] stood at 0.9 nM; against Cathepsin B it was 3350 nM; on Cathepsin S, 121 nM; against Cathepsin K [2], 1.3 nM; against Procathepsin L, 34 nM. Further, the pKa in experiment [1] was 1.3.
As for `CC(C)CC(NC(c1ccc(-c2ccc(N3CCNCC3)cc2)cc1)C(F)(F)F)C(=O)NCC#N` (stereo not drawn), the IC50 at Cathepsin B is more than 10000 nM; against Cathepsin S, 902 nM; at Cathepsin K [2] it was 4.6 nM; at Procathepsin L it was 68 nM.
